The values that follow come from US20250297015A1, “DRUG CONDITIONING REGIMEN FOR SICKLE CELL DISEASE” (NEW YORK BLOOD CENTER, INC., priority 2022, published 2025).

Structures are written as SMILES. “Also recorded” adds a separate entry of the source.

Holding throughout (assay type): in vivo
One series concerns SS Townes mice. In words: Peripheral blood response (Hb, Hct, reticulocytes, WBC) to GBT-1118 in SCD mouse model. How it is done:
(§1) This study uses a SCD mouse model, SS Townes mice, to evaluate the effects of GBT-1118, the murine analog of voxelotor, to mobilize hematopoietic progenitor cells (HPC). GBT-1118 (approximately 16 mg/mouse/day) was administered via chow (4 grams of GBT-1118 per kg of chow) daily for a month. The mice were then administered a single dose of plerixafor (10 mg/kg) via subcutaneous injection. […] Peripheral blood was collected in all groups prior to and two-and three-weeks post treatment with GBT-1118 (or control) to assess hemoglobin (Hgb), hematocrit (Hct), aged neutrophils, and circulating HPCs. One to two hrs after plerixafor, peripheral blood was collected for circulating HPC (LSKF) enumeration. Assay results in the groups are compared using ANOVA or Kruskal-Wallis testing.

The subject of series [1] is bone marrow HPCs and hematopoietic stem cells (HSCs). In words: Bone marrow HPCs and HSCs with and without plerixafor in SCD mouse model. Conditions: SS Townes mice. The procedure:
as §1
(§2) Also evaluated were bone marrow HPCs and hematopoietic stem cells (HSCs) with and without plerixafor and peripheral blood inflammatory markers (aged neutrophils, sVAM-1, P-selectin, and E-selectin) with and without plerixafor.
Bone marrow LSK (Lin^−Sca1^+ckit^+) is a less HSC-specific measure than bone marrow HSC (Lin^−Sca1^+ckit+CD48^−CD150^+); the markers Flt3 and CD135 are not present in bone marrow as they are in peripheral blood.

Series [2] concerns peripheral blood inflammatory markers. The series can be described thus: Peripheral blood inflammatory markers (aged neutrophils, sVCAM-1, P-selectin, E-selectin) in SCD mouse model. How it is done:
as §1, §2
There is an increase in the aged neutrophil population in SCD.
There is evidence that SCD is associated with a chronic inflammatory state. Therefore, inflammatory markers (sVCAM-1, P-selectin, and E-selectin) in the peripheral blood of mice treated with GBT-1118 alone or with plerixafor were evaluated. […] This increase may be related to increased WBC and absolute neutrophil counts (ANC). Plasma P-selectin and E-selectin were not increased with GBT-1118 alone or with plerixafor (FIGS. 6B and 6C).

Series [3] deals with peripheral blood hematopoietic progenitor cells (HPC), LSKF cells. The series can be described thus: Mobilization of peripheral blood hematopoietic progenitor cells (LSKF) in SCD mouse model. How it is done: as §1
Gating with and without CD45^+ was performed due to the erythroid hyperplasia seen in SCD, where CD45^+ expression decreases along with erythroid maturation (Boulais et al. Immunity 49:627-639, 2018) and the degree of erythroid hyperplasia in each mouse was unknown. The percentage of CD45^+ cells ranged from 60-80% per sample. […] As red cell transfusion tends to decrease circulating hematopoietic stem cells (HSCs) (Tang A et al, Blood 2021), this may be due to the increased bone marrow HSCs (FIGS. 4A and 4B) spilling into peripheral blood due to residual mesenchymal stem cell dysfunction.

For `O=Cc1c(O)cccc1OC[C@@H]1CCCCN1C(=O)c1cccnc1` [GBT-1118], in the series on SS Townes mice (GBT-1118 via chow approx. 16 mg/mouse/day, peripheral blood before vs 2 and 3 weeks after treatment (FIG. 1A)), the “hemoglobin (Hb)” value is listed as “increase”. Also, the “hematocrit (Hct)” value in the series with SS Townes mice (GBT-1118 via chow, before vs 2 and 3 weeks after treatment (FIG. 1B)) was “increase”. Also, the “percentage of reticulocytes (retic %)” value in the series on SS Townes mice (GBT-1118 via chow, before vs 2 and 3 weeks after treatment (FIG. 1C)) is recorded as “decrease”. Also, the “number of white blood cells (WBC)” value in the series on SS Townes mice (GBT-1118 via chow, before vs 2 and 3 weeks after treatment (FIG. 1D)) is on record as “essentially unchanged”. Moreover, the “bone marrow HSCs, as % of Lin- cells” value in series [1] (GBT-1118 alone versus control (FIG. 4A)) is on record as “significantly increased”. In addition, the “total number of bone marrow HSC per femur” value in series [1] (GBT-1118 versus control (FIG. 4B)) was “trend towards an increase; also recorded: trend towards increased”. Besides, the “plasma P-selectin” value in series [2] (GBT-1118 alone (FIG. 6B)) and in series [2] (GBT-1118 with plerixafor (FIG. 6B)) was “not increased” throughout. Besides, the “plasma E-selectin” value in series [2] (GBT-1118 alone (FIG. 6C)) and in series [2] (GBT-1118 with plerixafor (FIG. 6C)) was “not increased” each time. In addition, the “plasma sVCAM-1” value in series [2] (after GBT-1118 treatment (FIG. 6A)) is “small but significant increase”. Also, the “peripheral blood aged neutrophils (CXCR4high CD62Llow)” value in series [2] (post-mobilization with plerixafor, GBT-1118 versus control (FIG. 5A-B)) is listed as “not statistically significant”. In addition, the “peripheral blood LSKF cell concentration” value in series [3] (SS Townes mice, compared to control (FIG. 3B)) is listed as “significantly increased”. In series [3] (with CD45+ gating, plerixafor mobilization, 1-2 h after plerixafor, compared to control animals (FIGS. 3A and 3C)), the “percentage of peripheral blood LSKF (Lin-Sca1+ckit+Flt3-CD135-) cells mobilized” value is recorded as “higher percentage”.
